For 30 compounds, remaining activity results are on record in PMC8286840, “Identifying SARS-CoV-2 antiviral compounds by screening for small molecule inhibitors of Nsp3 papain-like protease” (Biochemical Journal, 2021).

Structures can show the parent of a compound that is named as a salt. Where two headings read alike, the source gives them in different places.

The target of assay [1] is T1, SARS-CoV-2 PLpro (nsp3 1564–1878) (Severe acute respiratory syndrome coronavirus 2, UniProt P0DTD1). The assay can be described thus: biochemical. Also noted: FRET-quenched peptide (Pro3) cleavage by PLpro, 10 min pre-incubation, slope over 20 min, normalised to no-compound control. Conditions: high concentration screen, read-out: % of control remaining.
Assay [2] deals with T1, SARS-CoV-2 PLpro (nsp3 1564–1878). The assay can be described thus: biochemical. Also noted: FRET-quenched peptide (Pro3) cleavage by PLpro, 10 min pre-incubation, slope over 20 min, normalised to no-compound control. Conditions: low concentration screen, read-out: % of control remaining.

For `CC(C)C[C@@H](C(=O)N[C@H](C(=O)OC1CCCC1)c1ccccc1)[C@H](O)C(=O)NO` [Tosedostat (CHR2797)], the remaining activity at 3.75 µM in assay [1] (Well no.=4880) stood at 88.9%. Moreover, the remaining activity at 1.25 µM in assay [2] (Well no.=4880) came to 93.4%.

Turning to `NC1CCN(c2nc3c(cc2F)c(=O)c(C(=O)O)cn3-c2ccc(F)cc2F)C1` (stereo not shown) [Tosufloxacin], in assay [1] (Well no.=1962), the remaining activity at 3.75 µM was 93.3%. The remaining activity at 1.25 µM in assay [2] (Well no.=1962) came to 98.1%.

Regarding `COc1ccc(N2CCOCC2)c2sc(NC(=O)N3CCC(C)(O)CC3)nc12` [Tozadenant], the remaining activity at 3.75 µM in assay [1] (Well no.=7049) turned out to be 100%; in assay [1] (Well no.=8115), 102%. Further, the results for the remaining activity at 1.25 µM in assay [2] (Well no.=7049) and in assay [2] (Well no.=8115) were 103% and 99%, respectively.

Consider `Cc1cc(Nc2cc(N3CCN(C)CC3)nc(Sc3ccc(NC(=O)C4CC4)cc3)n2)n[nH]1` [Tozasertib], for which the remaining activity at 3.75 µM in assay [1] (Well no.=2895) amounted to 103%. Further, the remaining activity at 1.25 µM in assay [2] (Well no.=2895) was found to be 101%.

Consider `N#Cc1cnc2cnc(NCc3cccnc3)cc2c1Nc1ccc(F)c(Cl)c1` [Tpl2 Kinase Inhibitor], for which the remaining activity at 3.75 µM in assay [1] (Well no.=2662) was determined as 89.7%. Moreover, the remaining activity at 1.25 µM in assay [2] (Well no.=2662) came to 92.4%.

On to `CCCCNc1c(C(=O)OCC)c(C)nc2c1cnn2CC` [Tracazolate], for which the remaining activity at 3.75 µM in assay [1] (Well no.=1472) stood at 93.7%. The remaining activity at 1.25 µM in assay [2] (Well no.=1472) turned out to be 93.2%.

As for `COc1cccc([C@@]2(O)CCCC[C@@H]2CN(C)C)c1` [Tramadol], the remaining activity at 3.75 µM in assay [1] (Well no.=2002) is 104%. Besides, the remaining activity at 1.25 µM in assay [2] (Well no.=2002) was 104%.

Turning to `NC[C@H]1CC[C@H](C(=O)O)CC1` [Tranexamic acid], in assay [1] (Well no.=1816), the remaining activity at 3.75 µM was 99.8%. For the same compound, the remaining activity at 1.25 µM in assay [2] (Well no.=1816) worked out at 97.3%.

Consider `COc1ccc(/C=C/C(=O)Nc2ccccc2C(=O)O)cc1OC` [Tranilast (trans-)], for which the remaining activity at 3.75 µM in assay [1] (Well no.=7917) was found to be 92%. Further, the remaining activity at 1.25 µM in assay [2] (Well no.=7917) amounted to 92.9%.

`COc1ccc(/C=C/C(=O)Nc2ccccc2C(=O)O)cc1OC` [Tranilast]: the remaining activity at 3.75 µM in assay [1] (Well no.=1519) was found to be 94.6%; in assay [1] (Well no.=1807), 96.1%; in assay [1] (Well no.=6317), 97.4%. In addition, the remaining activity at 1.25 µM stood at 95.4% in assay [2] (Well no.=1519), 96.3% in assay [2] (Well no.=1807) and 104% in assay [2] (Well no.=6317).

As to `CN1C(=O)C[C@H](C(=O)O)[C@H]1c1cccnc1` [Trans-4-Cotininecarboxylic acid], the remaining activity at 3.75 µM in assay [1] (Well no.=3200) stood at 97.7%. Further, in assay [2] (Well no.=3200), the remaining activity at 1.25 µM was determined as 95.4%.

In the case of `N[C@@H]1C[C@H]1c1ccccc1` [Tranylcypromine hydrochloride], the remaining activity at 3.75 µM in assay [1] (Well no.=1399) was found to be 105%. In addition, the remaining activity at 1.25 µM in assay [2] (Well no.=1399) is 100%.

Regarding `O=c1n(CCCN2CCN(c3cccc(Cl)c3)CC2)nc2ccccn12` [Trazodone (hydrochloride)], the remaining activity at 3.75 µM in assay [1] (Well no.=7432) is 111%. For the same compound, the remaining activity at 1.25 µM in assay [2] (Well no.=7432) turned out to be 109%.

Turning to `O=c1n(CCCN2CCN(c3cccc(Cl)c3)CC2)nc2ccccn12` [Trazodone hydrochloride], the remaining activity at 3.75 µM in assay [1] (Well no.=1339) came out at 104%. Also, in assay [2] (Well no.=1339), the remaining activity at 1.25 µM is 102%.

On to `Cn1c(=O)cc(N2CCC[C@@H](N)C2)n(Cc2cc(F)ccc2C#N)c1=O` [Trelagliptin], for which, in assay [1] (Well no.=8480), the remaining activity at 3.75 µM came to 98.9%. Moreover, in assay [2] (Well no.=8480), the remaining activity at 1.25 µM was 99.1%.

Take `COc1cc2c(cc1OC)-c1c/c(=N\c3c(C)cc(C)cc3C)n(C)c(=O)n1CC2` [Trequinsin hydrochloride]: in assay [1] (Well no.=1379), the remaining activity at 3.75 µM came out at 97.1%. Further, the remaining activity at 1.25 µM in assay [2] (Well no.=1379) amounted to 98.6%.

As to `CC1(C)O[C@@H]2C[C@H]3[C@@H]4CCC5=CC(=O)C=C[C@]5(C)[C@@]4(F)[C@@H](O)C[C@]3(C)[C@]2(C(=O)CO)O1` [Triamcinolone (acetonide)], the remaining activity at 3.75 µM in assay [1] (Well no.=6574) was determined as 108%. Besides, in assay [2] (Well no.=6574), the remaining activity at 1.25 µM was determined as 105%.

For `C[C@]12C=CC(=O)C=C1CC[C@H]1[C@@H]3C[C@@H](O)[C@](O)(C(=O)CO)[C@@]3(C)C[C@H](O)[C@@]12F` [Triamcinolone], the results for the remaining activity at 3.75 µM in assay [1] (Well no.=1435), in assay [1] (Well no.=2004) and in assay [1] (Well no.=6419) were 100%, 106% and 96.2%, respectively. Also, the remaining activity at 1.25 µM in assay [2] (Well no.=1435) is 98.1%; in assay [2] (Well no.=2004), 108%; in assay [2] (Well no.=6419), 94.8%.

Take `Nc1nc(N)c2nc(-c3ccccc3)c(N)nc2n1` [Triamterene]: in assay [1] (Well no.=1525), the remaining activity at 3.75 µM is 91.1%. The remaining activity at 1.25 µM in assay [2] (Well no.=1525) came to 94%.

Take `NS(=O)(=O)c1cc2c(cc1Cl)NC(C(Cl)Cl)NS2(=O)=O` (stereo not shown) [Trichlormethiazide]: in assay [1] (Well no.=8656), the remaining activity at 3.75 µM amounted to 99.7%. Also, in assay [2] (Well no.=8656), the remaining activity at 1.25 µM was 102%.

For the compound `NS(=O)(=O)c1cc2c(cc1Cl)NC(C(Cl)Cl)NS2(=O)=O` (stereo not shown) [Trichloromethiazide], the remaining activity at 3.75 µM in assay [1] (Well no.=2072) was 100%. For the same compound, the remaining activity at 1.25 µM in assay [2] (Well no.=2072) was 101%.

As for `CC(C)[C@H]1C(=O)O[C@@H]2CCN3CC=C(COC(=O)[C@](C)(O)[C@]1(C)O)[C@H]23` [Trichodesmine], the remaining activity at 3.75 µM in assay [1] (Well no.=3205) was 106%. For the same compound, the remaining activity at 1.25 µM in assay [2] (Well no.=3205) was determined as 105%.

As for `CC(/C=C/C(=O)NO)=C\[C@@H](C)C(=O)c1ccc(N(C)C)cc1` [Trichostatin A (TSA)], in assay [1] (Well no.=4617), the remaining activity at 3.75 µM was 107%. The remaining activity at 1.25 µM in assay [2] (Well no.=4617) turned out to be 106%.

In the case of `Oc1cc(Cl)ccc1Oc1ccc(Cl)cc1Cl` [Triclosan], the remaining activity at 3.75 µM in assay [1] (Well no.=8252) is 98.2%. For the same compound, the remaining activity at 1.25 µM in assay [2] (Well no.=8252) was 101%.

Consider `CCCCCCCCCCCCCCCCCCCCCCC(=O)O` [Tricosanoic acid], for which the remaining activity at 3.75 µM in assay [1] (Well no.=4496) worked out at 92.7%. The remaining activity at 1.25 µM in assay [2] (Well no.=4496) amounted to 91.3%.

Take `CCCCCCCCCCCCC(=O)O` [Tridecanoic acid]: in assay [1] (Well no.=4260), the remaining activity at 3.75 µM turned out to be 98%. Also, the remaining activity at 1.25 µM in assay [2] (Well no.=4260) was 106%.

Take `CN1CCN(CCCN2c3ccccc3Sc3ccc(C(F)(F)F)cc32)CC1` [Trifluoperazine (dihydrochloride)]: in assay [1] (Well no.=6369), the remaining activity at 3.75 µM is 105%. For the same compound, the remaining activity at 1.25 µM in assay [2] (Well no.=6369) was 105%.

Regarding `CN1CCN(CCCN2c3ccccc3Sc3ccc(C(F)(F)F)cc32)CC1` [Trifluoperazine dihydrochloride], the remaining activity at 3.75 µM in assay [1] (Well no.=1326) came out at 100%. The remaining activity at 1.25 µM in assay [2] (Well no.=1326) is 101%.

With `O=C(CCCN1CCC(O)(c2cccc(C(F)(F)F)c2)CC1)c1ccc(F)cc1` [Trifluperidol hydrochloride], the remaining activity at 3.75 µM in assay [1] (Well no.=1376) stood at 94.4%. Also, the remaining activity at 1.25 µM in assay [2] (Well no.=1376) is 96.4%.

As to `O=C(CCCN1CCC(O)(c2cccc(C(F)(F)F)c2)CC1)c1ccc(F)cc1` [Trifluperidol], the remaining activity at 3.75 µM in assay [1] (Well no.=2296) is 96.6%. Further, the remaining activity at 1.25 µM in assay [2] (Well no.=2296) is 95.3%.
